From patent US20230091047A1 (priority 2019, published 2023)
Read-outs that look alike come from different tables or passages of the source.

Tests used:
[1] = tested on: HBV (HepG2.117 cell line, inducibly HBV producing); assay: Anti-HBV activity: intracellular HBV DNA by real-time PCR in HepG2.117 cells after 3 days of treatment; format: cell-based, hepatitis B virus
Experimental: The anti HBV activity was measured using the HepG2.117 cell line, a stable, inducibly HBV producing cell line, which replicates HBV in the absence of doxycycline (Tet-off system). The HepG2 cell line is available from ATCCR under number HB-8065. Transfection of the HepG2 cell line can be as described in Sun and Nassal 2006 Journal of Hepatology 45 (2006) 636-645 “Stable HepG2- and Huh7-based human hepatoma cell lines for efficient regulated expression of infectious hepatitis B virus”.
For the antiviral assay, HBV replication was induced, followed by a treatment with serially diluted compound in 96-well plates. After 3 days of treatment, the antiviral activity was determined by quantification of intracellular HBV DNA using real-time PCR and an HBV specific primer set and probe.

in vitro = format: cell-based; settings: human, HepG2 or HepG2.117 cells, ATPlite, mean value
Experimental: Cytotoxicity of the compounds was tested using HepG2 or HepG2.117 cells, incubated for 3 or 4 days in the presence of compounds. The viability of the cells was assessed using the PERKIN ELMER ATPlite Luminescence Assay System.”

[2] = Hepatitis B virus, HepG2.117, 72 h, HepG2.117 cells, 3 days of treatment, intracellular HBV DNA by real-time PCR; mean value; read-out: EC50 (μM, mean value)
[3] = 3-days incubation (unmarked values)
[4] = Hepatitis B virus, HepG2.117, 72 h, HepG2.117 cells, intracellular HBV DNA by real-time PCR, 3 days of treatment, mean value; read-out: EC50 (μM, mean value)
[5] = 3-days incubation (not marked with *)

## CNC(=O)c1ccc(-n2c(N[C@H](C)c3ccnn3C)nc3c(c2=O)C[C@@H](C)N(C(=O)c2ccc(Cl)c(Cl)c2)C3)cc1 (single isomer, unassigned) [Compound C372a]
[1]; [2]
  EC50: 5.42 µM
In vitro; [3]
  CC50 at 3 days: > 50 µM

## CNC(=O)c1ccc(-n2c(N[C@@H](C)c3ccnn3C)nc3c(c2=O)C[C@@H](C)N(C(=O)c2ccc(Cl)c(Cl)c2)C3)cc1 (single isomer, unassigned) [Compound C372b]
[1]; [2]
  EC50: 2.54 µM
In vitro; [3]
  CC50 at 3 days: > 50 µM

## CNC(=O)c1ccc(-n2c(N[C@H](C)c3ccncc3)nc3c(c2=O)C[C@@H](C)N(C(=O)c2ccc(Cl)c(Cl)c2)C3)cc1 (single isomer, unassigned) [Compound C375a]
[1]; [2]
  EC50: 3.19 µM
In vitro; [3]
  CC50 at 3 days: > 50 µM

## CNC(=O)c1ccc(-n2c(N[C@@H](C)c3ccncc3)nc3c(c2=O)C[C@@H](C)N(C(=O)c2ccc(Cl)c(Cl)c2)C3)cc1 (single isomer, unassigned) [Compound C375b]
[1]; [2]
  EC50: 0.62 µM
In vitro; [3]
  CC50 at 3 days: > 50 µM

## CNC(=O)c1ccc(-n2c(N[C@H](C)c3cccnc3)nc3c(c2=O)C[C@@H](C)N(C(=O)c2ccc(Cl)c(Cl)c2)C3)cc1 (single isomer, unassigned) [Compound C377a]
[1]; [4]
  EC50: 0.82 µM
In vitro; [5]
  CC50 at 3 days: > 50 µM

## CNC(=O)c1ccc(-n2c(N[C@@H](C)c3cccnc3)nc3c(c2=O)C[C@@H](C)N(C(=O)c2ccc(Cl)c(Cl)c2)C3)cc1 (single isomer, unassigned) [Compound C377b]
[1]; [2]
  EC50: 3.95 µM
In vitro; [3]
  CC50 at 3 days: > 50 µM

## CCc1cc(C(=O)NC)ccc1-n1c(NC(C)C)nc2c(c1=O)C[C@@H](C)N(C(=O)c1ccc(Cl)c(Cl)c1)C2 (single isomer, unassigned) [Compound C383a]
[1]; [4]
  EC50: 0.32 µM
In vitro; [5]
  CC50 at 3 days: > 50 µM

## CNC(=O)c1ccc(-n2c(N[C@@H](C)c3ccccc3)nc3c(c2=O)C[C@@H](C)N(C(=O)c2ccc(Cl)c(Cl)c2)C3)c(Cl)c1 (single isomer, unassigned) [Compound C386a]
[1]; [4]
  EC50: 0.08 µM
In vitro; [5]
  CC50 at 3 days: > 50 µM

## CNC(=O)c1ccc(-n2c(N[C@@H](C)C3CC3)nc3c(c2=O)C[C@@H](C)N(C(=O)c2ccc(Cl)c(Cl)c2)C3)c(Cl)c1 (single isomer, unassigned) [Compound C387a]
[1]; [4]
  EC50: 0.05 µM
In vitro; [5]
  CC50 at 3 days: > 50 µM

## CC(C)Nc1nc2c(c(=O)n1-c1ccc(-c3nccn3C)cc1Cl)C[C@@H](C)N(C(=O)c1ccc(Cl)c(Cl)c1)C2 (single isomer, unassigned) [Compound C392a]
[1]; [4]
  EC50: 0.16 µM
In vitro; [5]
  CC50 at 3 days: 22.7 µM

## CNC(=O)c1ccc(-n2c(N[C@H](C)c3cccc(OC)c3)nc3c(c2=O)C[C@@H](C)N(C(=O)c2ccc(Cl)c(Cl)c2)C3)cc1 (single isomer, unassigned) [Compound C394a]
[1]; [4]
  EC50: 32.5 µM
In vitro; [5]
  CC50 at 3 days: > 50 µM

## CNC(=O)c1ccc(-n2c(N[C@@H](C)c3cccc(OC)c3)nc3c(c2=O)C[C@@H](C)N(C(=O)c2ccc(Cl)c(Cl)c2)C3)cc1 (single isomer, unassigned) [Compound C394b]
[1]; [4]
  EC50: 0.15 µM
In vitro; [5]
  CC50 at 3 days: 29 µM

## CNC(=O)c1ccc(-n2c(N3CCC[C@@H]3c3ccccc3)nc3c(c2=O)C[C@@H](C)N(C(=O)c2ccc(Cl)c(Cl)c2)C3)cc1 (single isomer, unassigned) [Compound C401a]
[1]; [4]
  EC50: 0.36 µM
In vitro; [5]
  CC50 at 3 days: 13.8 µM

## CNC(=O)c1ccc(-n2c(N3CCC[C@H]3c3ccccc3)nc3c(c2=O)C[C@@H](C)N(C(=O)c2ccc(Cl)c(Cl)c2)C3)cc1 (single isomer, unassigned) [Compound C401b]
[1]; [4]
  EC50: 0.83 µM
In vitro; [5]
  CC50 at 3 days: 18.2 µM

## CNC(=O)c1ccc(-n2c(N[C@H](C)c3ccccc3OC)nc3c(c2=O)C[C@@H](C)N(C(=O)c2ccc(Cl)c(Cl)c2)C3)cc1 (single isomer, unassigned) [Compound C402a]
[1]; [4]
  EC50: 0.32 µM
In vitro; [5]
  CC50 at 3 days: 13.8 µM

## CNC(=O)c1ccc(-n2c(N[C@@H](C)c3ccccc3OC)nc3c(c2=O)C[C@@H](C)N(C(=O)c2ccc(Cl)c(Cl)c2)C3)cc1 (single isomer, unassigned) [Compound C402b]
[1]; [4]
  EC50: 0.08 µM
In vitro; [5]
  CC50 at 3 days: 18.8 µM

## CNC(=O)c1ccc(-n2c(N[C@H](C)C3CCC3)nc3c(c2=O)C[C@@H](C)N(C(=O)c2ccc(Cl)c(Cl)c2)C3)cc1 (single isomer, unassigned) [Compound C406a]
[1]; [4]
  EC50: 0.18 µM
In vitro; [5]
  CC50 at 3 days: 31.3 µM

## CNC(=O)c1ccc(-n2c(N[C@@H](C)C3CCC3)nc3c(c2=O)C[C@@H](C)N(C(=O)c2ccc(Cl)c(Cl)c2)C3)cc1 (single isomer, unassigned) [Compound C406b]
[1]; [4]
  EC50: 0.16 µM
In vitro; [5]
  CC50 at 3 days: 24.5 µM

## COc1ccc([C@H](C)Nc2nc3c(c(=O)n2-c2ccc(NC(C)=O)cc2)C[C@@H](C)N(C(=O)c2ccc(Cl)c(Cl)c2)C3)cc1 (single isomer, unassigned) [Compound C410b]
[1]; HepG2.117 cells, intracellular HBV DNA by real-time PCR, 3 days of treatment, mean value; read-out: EC50 (μM, mean value)
  EC50: 0.11 µM
In vitro; [5]
  CC50 at 3 days: > 50 µM

## CNC(=O)c1ccc(-n2c(N[C@H](C)c3ccc(S(C)(=O)=O)cc3)nc3c(c2=O)C[C@@H](C)N(C(=O)c2ccc(Cl)c(Cl)c2)C3)cc1 (single isomer, unassigned) [Compound C412a]
[1]; [4]
  EC50: 0.94 µM
In vitro; [5]
  CC50 at 3 days: > 50 µM

## CNC(=O)c1ccc(-n2c(N[C@@H](C)c3ccc(S(C)(=O)=O)cc3)nc3c(c2=O)C[C@@H](C)N(C(=O)c2ccc(Cl)c(Cl)c2)C3)cc1 (single isomer, unassigned) [Compound C412b]
[1]; [4]
  EC50: > 10 µM
In vitro; [5]
  CC50 at 3 days: > 50 µM

## CNC(=O)c1ccc(-n2c(N[C@H](C)c3ccc(C(F)(F)F)cc3)nc3c(c2=O)C[C@@H](C)N(C(=O)c2ccc(Cl)c(Cl)c2)C3)cc1 (single isomer, unassigned) [Compound C413a]
[1]; [4]
  EC50: 0.06 µM
In vitro; [5]
  CC50 at 3 days: 9 µM

## CNC(=O)c1ccc(-n2c(N[C@@H](C)c3ccc(C(F)(F)F)cc3)nc3c(c2=O)C[C@@H](C)N(C(=O)c2ccc(Cl)c(Cl)c2)C3)cc1 (single isomer, unassigned) [Compound C413b]
[1]; [4]
  EC50: 4.13 µM
In vitro; [5]
  CC50 at 3 days: 8.3 µM

## CNC(=O)c1ccc(-n2c(N[C@H](C)c3ccc4c(c3)OCO4)nc3c(c2=O)C[C@@H](C)N(C(=O)c2ccc(Cl)c(Cl)c2)C3)cc1 (single isomer, unassigned) [Compound C414a]
[1]; [4]
  EC50: 0.29 µM
In vitro; [5]
  CC50 at 3 days: > 50 µM

## CNC(=O)c1ccc(-n2c(N[C@@H](C)c3ccc4c(c3)OCO4)nc3c(c2=O)C[C@@H](C)N(C(=O)c2ccc(Cl)c(Cl)c2)C3)cc1 (single isomer, unassigned) [Compound C414b]
[1]; [4]
  EC50: 0.06 µM
In vitro; [5]
  CC50 at 3 days: > 50 µM

## CNC(=O)c1ccc(-n2c(N[C@H](C)c3ccc(OC)c(OC)c3)nc3c(c2=O)C[C@@H](C)N(C(=O)c2ccc(Cl)c(Cl)c2)C3)cc1 (single isomer, unassigned) [Compound C415a]
[1]; [4]
  EC50: 1.06 µM
In vitro; [5]
  CC50 at 3 days: 32.9 µM

## CNC(=O)c1ccc(-n2c(N[C@@H](C)c3ccc(OC)c(OC)c3)nc3c(c2=O)C[C@@H](C)N(C(=O)c2ccc(Cl)c(Cl)c2)C3)cc1 (single isomer, unassigned) [Compound C415b]
[1]; [4]
  EC50: 0.12 µM
In vitro; [5]
  CC50 at 3 days: 27.6 µM

## CNC(=O)c1ccc(-n2c(N[C@H](C)c3ccc(OC)c(F)c3)nc3c(c2=O)C[C@@H](C)N(C(=O)c2ccc(Cl)c(Cl)c2)C3)cc1 (single isomer, unassigned) [Compound C416a]
[1]; [4]
  EC50: 0.96 µM
In vitro; [5]
  CC50 at 3 days: > 50 µM

## CNC(=O)c1ccc(-n2c(N[C@@H](C)c3ccc(OC)c(F)c3)nc3c(c2=O)C[C@@H](C)N(C(=O)c2ccc(Cl)c(Cl)c2)C3)cc1 (single isomer, unassigned) [Compound C416b]
[1]; [4]
  EC50: 0.06 µM
In vitro; [5]
  CC50 at 3 days: 34.5 µM

## CNC(=O)c1ccc(-n2c(N[C@H](C)c3ccc(F)c(F)c3)nc3c(c2=O)C[C@@H](C)N(C(=O)c2ccc(Cl)c(Cl)c2)C3)cc1 (single isomer, unassigned) [Compound C417a]
[1]; [4]
  EC50: 1.22 µM
In vitro; [5]
  CC50 at 3 days: 41.8 µM

## CNC(=O)c1ccc(-n2c(N[C@@H](C)c3ccc(F)c(F)c3)nc3c(c2=O)C[C@@H](C)N(C(=O)c2ccc(Cl)c(Cl)c2)C3)cc1 (single isomer, unassigned) [Compound C417b]
[1]; [4]
  EC50: 0.06 µM
In vitro; [5]
  CC50 at 3 days: 7.3 µM

## CNC(=O)c1ccc(-n2c(N[C@@H](c3ccc(OC)cc3)C(C)C)nc3c(c2=O)C[C@@H](C)N(C(=O)c2ccc(Cl)c(Cl)c2)C3)cc1 (single isomer, unassigned) [Compound C422a]
[1]; [4]
  EC50: 7.77 µM
In vitro; [5]
  CC50 at 3 days: 10.5 µM

## CNC(=O)c1ccc(-n2c(N[C@H](c3ccc(OC)cc3)C(C)C)nc3c(c2=O)C[C@@H](C)N(C(=O)c2ccc(Cl)c(Cl)c2)C3)cc1 (single isomer, unassigned) [Compound C422b]
[1]; [4]
  EC50: 0.28 µM
In vitro; [5]
  CC50 at 3 days: 17.2 µM

## CNC(=O)c1ccc(-n2c(N[C@H](C)c3cc(C)no3)nc3c(c2=O)C[C@@H](C)N(C(=O)c2ccc(Cl)c(Cl)c2)C3)cc1 (single isomer, unassigned) [Compound C433a]
[1]; [4]
  EC50: 1.89 µM
In vitro; [5]
  CC50 at 3 days: > 50 µM

## CNC(=O)c1ccc(-n2c(N[C@@H](C)c3cc(C)no3)nc3c(c2=O)C[C@@H](C)N(C(=O)c2ccc(Cl)c(Cl)c2)C3)cc1 (single isomer, unassigned) [Compound C433b]
[1]; [4]
  EC50: 0.73 µM
In vitro; [5]
  CC50 at 3 days: > 50 µM
